Results from US6462198B1, “Carbamic acid derivatives” (Hoffmann-La Roche Inc., priority 1999, dated 2002).

What was measured:
rat mGlu 1a receptor = biological target: T1, rat mGlu 1a receptor (Rattus norvegicus, UniProt P23385); experiment: [Ca2+]i measurement (FLIPR) on mGlu 1a transfected EBNA cells; type: cell-based; conditions: for agonist/antagonist: mode of action at group I mGlu receptor, [Ca2+]i FLIPR assay
T1 construct: expressed in transfected cells; host or cells: EBNA cells (transient transfection)
T1 sequence (P23385 19-1199): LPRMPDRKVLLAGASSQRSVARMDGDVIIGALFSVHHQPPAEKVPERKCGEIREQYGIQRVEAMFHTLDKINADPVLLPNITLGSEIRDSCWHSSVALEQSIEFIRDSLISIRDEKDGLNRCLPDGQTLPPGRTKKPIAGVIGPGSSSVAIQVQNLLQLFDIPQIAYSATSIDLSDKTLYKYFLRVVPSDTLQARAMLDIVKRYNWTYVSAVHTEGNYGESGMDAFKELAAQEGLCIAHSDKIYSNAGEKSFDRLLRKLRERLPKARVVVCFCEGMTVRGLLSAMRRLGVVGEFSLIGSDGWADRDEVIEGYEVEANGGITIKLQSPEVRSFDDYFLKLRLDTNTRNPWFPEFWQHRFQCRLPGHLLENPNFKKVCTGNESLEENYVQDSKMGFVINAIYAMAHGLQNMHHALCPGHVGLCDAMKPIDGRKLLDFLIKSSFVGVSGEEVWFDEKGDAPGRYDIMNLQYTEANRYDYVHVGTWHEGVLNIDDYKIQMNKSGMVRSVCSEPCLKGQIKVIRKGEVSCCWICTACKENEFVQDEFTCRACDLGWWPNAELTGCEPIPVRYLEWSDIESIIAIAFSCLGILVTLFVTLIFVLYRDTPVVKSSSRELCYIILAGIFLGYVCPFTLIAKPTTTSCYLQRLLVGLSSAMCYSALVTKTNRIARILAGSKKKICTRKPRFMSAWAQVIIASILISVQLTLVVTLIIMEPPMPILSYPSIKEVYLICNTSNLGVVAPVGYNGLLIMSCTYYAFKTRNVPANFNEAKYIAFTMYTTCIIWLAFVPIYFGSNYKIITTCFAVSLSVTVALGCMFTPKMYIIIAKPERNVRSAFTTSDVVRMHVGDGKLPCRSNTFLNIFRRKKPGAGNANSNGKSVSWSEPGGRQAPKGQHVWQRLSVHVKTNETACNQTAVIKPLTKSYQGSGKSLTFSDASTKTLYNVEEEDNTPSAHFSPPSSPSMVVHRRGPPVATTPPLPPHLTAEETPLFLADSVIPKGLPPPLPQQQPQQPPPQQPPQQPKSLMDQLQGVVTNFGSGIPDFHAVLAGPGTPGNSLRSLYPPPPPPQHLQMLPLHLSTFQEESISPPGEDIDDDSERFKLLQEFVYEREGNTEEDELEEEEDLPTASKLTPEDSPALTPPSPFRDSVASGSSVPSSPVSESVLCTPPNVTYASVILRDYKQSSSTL

[1] = compounds acting as antagonists, tested against 10 μM glutamate as agonist

Compound | melting point | also measured
Cc1cnc(NC(=O)C(c2ccccc2)c2ccccc2)o1 [Example 65, N-(5-Methyl-oxazol-2-yl)-2,2-diphenyl-acetamide] | 166 to 168 °C | IC50 (rat mGlu 1a receptor; compounds acting as agonists, activation curve): 400 nM; agonist/antagonist (rat mGlu 1a receptor): agonist
CC(C)OC(=O)NC(=O)C(c1ccccc1)c1ccccc1 [Example 4, Diphenylacetyl-carbamic acid isopropyl ester] | 122 to 124 °C | –
CCCCOC(=O)NC(=O)C(C)(c1ccccc1)c1ccccc1 [Example 25, (2,2-Diphenyl-propionyl)-carbamic acid butyl ester] | 83 °C | IC50 (rat mGlu 1a receptor; [1]): 1380 nM
CCCC(=O)NC(=O)C1c2ccccc2Oc2ccccc21 | 222 °C | –
CCCCSC(=O)NC(=O)C(c1ccccc1)c1ccccc1 | 99 °C | –
O=C(Nc1nnc(CC2CC2)o1)C(c1ccccc1)c1ccccc1 [Example 59, N-(5-Cyclopropylmethyl-[1,3,4]oxadiazol-2-yl)-2,2-diphenyl-acetamide] | 158 to 159 °C | –
CCOC(=O)NC(=O)C1c2ccccc2Oc2ccccc21 | 228 °C (dec.) | –
CCCCOC(=O)NC(=O)C(c1ccccc1)c1ccccc1 | 82 to 84 °C | –
CCOC(=O)NC(=O)C1c2ccccc2Oc2c1cccc2C(F)(F)F (centres unmarked) | 196 to 198 °C | –
(2,2-Diphenyl-propionyl)-carbamic acid methyl ester [Example 23] | – | IC50 (rat mGlu 1a receptor; [1]): 6310 nM; agonist/antagonist (rat mGlu 1a receptor): antagonist
O=C(NC(=O)C(c1ccccc1)c1ccccc1)OCC1CC1 [Example 10, Diphenylacetyl-carbamic acid cyclopropylmethyl ester] | 108 °C | –
CCOC(=O)NC(=O)C(c1cccc(C)c1)c1ncc(C(F)(F)F)cc1Cl (centres unmarked) | 146 to 147 °C | –
O=C(NC(=O)C(c1ccccc1)c1ccccc1)C1CC1 | 178 °C | –
C=CCOC(=O)NC(=O)C(C)(c1ccccc1)c1ccccc1 [Example 24, (2,2-Diphenyl-propionyl)-carbamic acid allyl ester] | 89 °C | IC50 (rat mGlu 1a receptor; [1]): 2790 nM
CCCCC(=O)NC(=O)C(c1ccccc1)c1ccccc1 [Example 43, Pentanoic acid diphenylacetyl-amide] | 83 °C | –
O=C(NC(=O)C(c1ccccc1)c1ccccc1)OCCN1CCOCC1 | 135 to 137 °C | –
CCOC(=O)NC(=O)C1c2ccccc2Sc2ccccc21 | 179 to 182 °C | –
CCc1cnc(NC(=O)C(c2ccccc2)c2ccccc2)o1 [Example 63, N-(5-Ethyl-oxazol-2-yl)-2,2-diphenyl-acetamide] | 148 to 149 °C | –
C=CCOC(=O)NC(=O)C(c1ccccc1)c1ccccc1 [Example 3, Diphenylacetyl-carbamic acid allyl ester] | 118 to 120 °C | –
CCCC(=O)NC(=O)C(c1ccccc1)c1ccccc1 | 205 °C | –
CC(C)(C)OC(=O)NC(=O)C(c1ccccc1)c1ccccc1 | 160 to 162 °C | –
O=C(Nc1ncco1)C1c2ccccc2Sc2ccccc21 [Example 31, 9H-Thioxanthene-9-carboxylic acid oxazol-2-ylamide] | 188 to 191 °C | –
CCOC(=O)NC(=O)C1c2ccccc2Oc2ccc(Br)cc21 (racemic) | 203 °C | –
CCCCOC(=O)NC(=O)C1c2ccccc2Sc2ccccc21 [Example 32, (9H-Thioxanthene-9-carbonyl)-carbamic acid butyl ester] | 151 to 154 °C | agonist/antagonist (rat mGlu 1a receptor): agonist
O=C(Nc1nnc(C2CC2)o1)C(c1ccccc1)c1ccccc1 [Example 57, N-(5-Cyclopropyl-[1,3,4]oxadiazol-2-yl)-2,2-diphenyl-acetamide] | 159 to 160 °C | –
COCCc1nnc(NC(=O)C(c2ccccc2)c2ccccc2)o1 [Example 55, N-[5-(2-Methoxy-ethyl)-[1,3,4]oxadiazol-2-yl]-2,2-diphenyl-acetamide] | 114 to 115 °C | –
